In brackets after ≈: the same amount, converted by molar mass.
Assays:
[1] = tested on: Mycobacterium avium; conditions: 104 mc'2 4
[2] = tested on: Mycobacterium avium; conditions: isolate MAV3
[3] = tested on: Mycobacterium avium; conditions: 104 mc'2 3
[4] = tested on: Mycobacterium avium; conditions: isolate MAV3; remark: listed apart in the source
[5] = tested on: Mycobacterium avium; conditions: 104 mc'2 4; remark: listed apart in the source
[6] = tested on: Mycobacterium avium; conditions: 104
[7] = tested on: Mycobacterium avium; conditions: isolate MAV1
Description: Inhibition of multidrug resistance efflux pump in Mycobacterium avium isolate MAV1 assessed as potentiation of ciprofloxacin-induced antibacterial activity by measuring ciprofloxacin MIC at 1/2 MIC incubated for 3 days by MTT assay (Rvb = 2 ug/ml)

[8] = tested on: Mycobacterium avium; conditions: 104; remark: listed apart in the source
[9] = tested on: Mycobacterium avium; conditions: 104 mc'2 4; remark: listed apart in the source
[10] = tested on: Mycobacterium avium; conditions: isolate MAV1; remark: listed apart in the source
Description: Inhibition of multidrug resistance efflux pump in Mycobacterium avium isolate MAV1 assessed as potentiation of ciprofloxacin-induced antibacterial activity by measuring ciprofloxacin MIC at 1/4 MIC incubated for 3 days by MTT assay

[11] = tested on: Mycobacterium avium; conditions: isolate MAV3; remark: listed apart in the source
[12] = tested on: Mycobacterium avium; conditions: 104 mc'2 4; remark: listed apart in the source
[13] = tested on: Mycobacterium avium; conditions: 104; remark: listed apart in the source
[14] = tested on: Mycobacterium avium; conditions: 104; remark: listed apart in the source
[15] = tested on: Mycobacterium avium subsp. avium ATCC 25291
[16] = tested on: Mycobacterium avium; conditions: isolate MAV4
[17] = tested on: Mycobacterium avium; conditions: isolate MAV3; remark: listed apart in the source
[18] = tested on: Mycobacterium avium; conditions: 104 mc'2 3; remark: listed apart in the source
[19] = tested on: Mycobacterium avium; conditions: isolate MAV1; remark: listed apart in the source
[20] = tested on: Mycobacterium avium; conditions: isolate MAV2
[21] = tested on: Mycobacterium avium subsp. avium ATCC 25291; remark: listed apart in the source
[22] = tested on: Mycobacterium avium; conditions: isolate MAV1; remark: listed apart in the source
[23] = tested on: Mycobacterium avium; conditions: isolate MAV2; remark: listed apart in the source
Description: Inhibition of multidrug resistance efflux pump in Mycobacterium avium isolate MAV2 assessed as potentiation of ofloxacin-induced antibacterial activity by measuring ofloxacin MIC at 1/2 MIC incubated for 3 days by MTT assay

[24] = tested on: Mycobacterium avium; conditions: isolate MAV2; remark: listed apart in the source
[25] = tested on: Mycobacterium avium; conditions: isolate MAV4; remark: listed apart in the source
[26] = tested on: Mycobacterium avium; conditions: isolate MAV4; remark: listed apart in the source
[27] = tested on: Mycobacterium avium; test: Antimycobacterial activity against Mycobacterium avium isolate MAV1 assessed as reduction in bacterial viability incubated for 3 days by MTT assay; type: organism-based; conditions: in vitro, 72 h
[28] = tested on: Mycobacterium avium; conditions: 104 mc'2 4; remark: listed apart in the source
[29] = tested on: Mycobacterium avium; conditions: 104 mc'2 4; remark: listed apart in the source
[30] = Safety index, ratio of MTC for test compound to MTC for chlorpromazine for cytotoxicity in human monocyte-derived macrophages; type: cell-based, Macrophage cell line
[31] = tested on: Mycobacterium avium; conditions: isolate MAV1; remark: listed apart in the source
[32] = tested on: Mycobacterium avium subsp. avium ATCC 25291; remark: listed apart in the source
Description: Inhibition of multidrug resistance efflux pump in Mycobacterium avium ATCC 25291 assessed as potentiation of clarithromycin -induced antibacterial activity by measuring clarithromycin MIC at 1/4 MIC incubated for 3 days by MTT assay

[33] = tested on: Mycobacterium avium; conditions: 104 mc'2 3; remark: listed apart in the source
[34] = tested on: Mycobacterium avium; test: Antimycobacterial activity against Mycobacterium avium isolate MAV3 assessed as reduction in bacterial viability incubated for 3 days by MTT assay; type: organism-based; conditions: 72 h
[35] = tested on: Mycobacterium avium subsp. avium ATCC 25291; remark: listed apart in the source
[36] = tested on: Mycobacterium avium; conditions: isolate MAV3; remark: listed apart in the source
[37] = Safety index, ratio of MTC for test compound to MTC for thioridazine for cytotoxicity in human monocyte-derived macrophages; type: cell-based, Macrophage cell line
[38] = tested on: Mycobacterium avium subsp. avium ATCC 25291; remark: listed apart in the source
Description: Inhibition of multidrug resistance efflux pump in Mycobacterium avium ATCC 25291 assessed as potentiation of ethidium bromide-induced antibacterial activity by measuring ethidium bromide MIC at 1/4 MIC incubated for 3 days by MTT assay

[39] = tested on: Mycobacterium avium subsp. avium ATCC 25291; remark: listed apart in the source
[40] = tested on: Mycobacterium avium; conditions: 104 mc'2 3; remark: listed apart in the source
[41] = tested on: Mycobacterium avium; conditions: isolate MAV3; remark: listed apart in the source
[42] = tested on: Mycobacterium avium; conditions: isolate MAV1; remark: listed apart in the source
[43] = tested on: Mycobacterium avium subsp. avium ATCC 25291; remark: listed apart in the source
Description: Inhibition of multidrug resistance efflux pump in Mycobacterium avium ATCC 25291 assessed as potentiation of clarithromycin -induced antibacterial activity by measuring clarithromycin MIC at 1/2 MIC incubated for 3 days by MTT assay

[44] = tested on: Mycolicibacterium smegmatis; test: Antimycobacterial activity against Mycobacterium smegmatis str. MC2 155 assessed as reduction in bacterial viability incubated for 3 days by MTT assay; type: organism-based; conditions: 72 h
[45] = tested on: Mycobacterium avium; conditions: 104; remark: listed apart in the source
Description: Inhibition of multidrug resistance efflux pump in Mycobacterium avium 104 assessed as potentiation of clarithromycin -induced antibacterial activity by measuring clarithromycin MIC at 1/4 MIC incubated for 3 days by MTT assay

[46] = tested on: Mycobacterium avium subsp. avium ATCC 25291; remark: listed apart in the source
Description: Inhibition of multidrug resistance efflux pump in Mycobacterium avium ATCC 25291 assessed as potentiation of ethidium bromide-induced antibacterial activity by measuring ethidium bromide MIC at 1/2 MIC incubated for 3 days by MTT assay (Rvb = 50 ug/ml)

[47] = tested on: Mycobacterium avium; conditions: isolate MAV3; remark: listed apart in the source
[48] = tested on: Mycobacterium avium; conditions: isolate MAV4; remark: listed apart in the source
Description: Inhibition of multidrug resistance efflux pump in Mycobacterium avium isolate MAV4 assessed as potentiation of clarithromycin -induced antibacterial activity by measuring clarithromycin MIC at 1/2 MIC incubated for 3 days by MTT assay

[49] = tested on: Mycobacterium avium; conditions: isolate MAV4; remark: listed apart in the source
[50] = tested on: Mycobacterium avium; conditions: 104; remark: listed apart in the source
[51] = tested on: Mycobacterium avium subsp. avium ATCC 25291; remark: listed apart in the source
[52] = tested on: Mycobacterium avium; conditions: isolate MAV2; remark: listed apart in the source
[53] = tested on: Mycobacterium avium; conditions: 104 mc'2 3; remark: listed apart in the source
[54] = tested on: Mycobacterium avium; conditions: isolate MAV1; remark: listed apart in the source
[55] = tested on: Mycobacterium avium; conditions: isolate MAV1; remark: listed apart in the source
[56] = tested on: Mycobacterium avium; conditions: isolate MAV1; remark: listed apart in the source
Description: Inhibition of multidrug resistance efflux pump in Mycobacterium avium isolate MAV1 assessed as potentiation of ofloxacin-induced antibacterial activity by measuring ofloxacin MIC at 1/4 MIC incubated for 3 days by MTT assay (Rvb = 4 ug/ml)

[57] = tested on: Mycobacterium avium; conditions: isolate MAV1; remark: listed apart in the source
[58] = tested on: Mycobacterium avium; conditions: 104 mc'2 4; remark: listed apart in the source
[59] = tested on: Mycobacterium avium; conditions: 104 mc'2 4; remark: listed apart in the source
[60] = tested on: Mycobacterium avium; conditions: isolate MAV4; remark: listed apart in the source
Description: Inhibition of multidrug resistance efflux pump in Mycobacterium avium isolate MAV4 assessed as potentiation of clarithromycin -induced antibacterial activity by measuring clarithromycin MIC at 1/4 MIC incubated for 3 days by MTT assay

[61] = Safety index, ratio of CC50 for test compound to CC50 for chlorpromazine for cytotoxicity in human monocyte-derived macrophages; type: cell-based, Macrophage cell line
[62] = tested on: Mycobacterium avium; conditions: isolate MAV1; remark: listed apart in the source
Description: Inhibition of multidrug resistance efflux pump in Mycobacterium avium isolate MAV1 assessed as potentiation of ofloxacin-induced antibacterial activity by measuring ofloxacin MIC at 1/2 MIC incubated for 3 days by MTT assay (Rvb = 4 ug/ml)

[63] = tested on: Mycobacterium avium; conditions: isolate MAV3; remark: listed apart in the source
[64] = tested on: Mycobacterium avium; conditions: in vivo, 72 h
Description: Antimycobacterial activity against Mycobacterium avium 104 mc'2 3 assessed as reduction in bacterial viability incubated for 3 days by MTT assay

[65] = tested on: Mycobacterium avium; conditions: isolate MAV4; remark: listed apart in the source
Description: Inhibition of multidrug resistance efflux pump in Mycobacterium avium isolate MAV4 assessed as potentiation of ethidium bromide-induced antibacterial activity by measuring ethidium bromide MIC at 1/4 MIC incubated for 3 days by MTT assay

[66] = tested on: Mycobacterium avium; conditions: isolate MAV2; remark: listed apart in the source
Description: Inhibition of multidrug resistance efflux pump in Mycobacterium avium isolate MAV2 assessed as potentiation of clarithromycin -induced antibacterial activity by measuring clarithromycin MIC at 1/4 MIC incubated for 3 days by MTT assay (Rvb = >1024 ug/ml)

[67] = tested on: Mycobacterium avium; conditions: isolate MAV4; remark: listed apart in the source

CCCOc1ccc(-c2cn(CCN3CCCCC3)c3ccccc3c2=O)cc1
MIC [1]: < 0.125 µg/mL | MIC [2]: 16 µg/mL (≈ 41 µM) | MIC [3]: 128 µg/mL (≈ 328 µM) | MIC [4]: 3.12 µg/mL (≈ 8 µM) | MIC [5]: < 0.195 µg/mL | MIC [6]: < 0.195 µg/mL | MIC [7]: < 0.031 µg/mL | MIC [8]: < 0.125 µg/mL | MIC [9]: < 4 µg/mL | MIC [10]: 2 µg/mL (≈ 5.12 µM) | MIC [11]: 32 µg/mL (≈ 81.9 µM) | MIC [12]: < 0.125 µg/mL | MIC [13]: < 0.195 µg/mL | MIC [14]: < 0.125 µg/mL | MIC [15]: < 0.5 µg/mL | MIC [16]: < 4 µg/mL | MIC [17]: < 4 µg/mL | MIC [18]: < 0.125 µg/mL | MIC [19]: < 0.195 µg/mL | MIC [20]: 512 µg/mL (≈ 1310 µM) | MIC [21]: < 0.5 µg/mL | MIC [22]: 1.56 µg/mL (≈ 3.99 µM) | MIC [23]: 2 µg/mL (≈ 5.12 µM) | MIC [24]: 512 µg/mL (≈ 1310 µM) | MIC [25]: 8 µg/mL (≈ 20.5 µM) | MIC [26]: < 0.125 µg/mL | MIC [27]: 128 µg/mL (≈ 328 µM) | MIC [28]: 3.12 µg/mL (≈ 8 µM) | MIC [29]: 128 µg/mL (≈ 328 µM) | selectivity ratio [30]: 2 to 4 | MIC [31]: 0.25 µg/mL (≈ 0.64 µM) | MIC [32]: 4 µg/mL (≈ 10.2 µM) | MIC [33]: 2 µg/mL (≈ 5.12 µM) | MIC [34]: 128 µg/mL (≈ 328 µM) | MIC [35]: < 1 µg/mL | MIC [36]: 2 µg/mL (≈ 5.12 µM) | selectivity ratio [37]: 4 to 6 | MIC [38]: 12.5 µg/mL (≈ 32 µM) | MIC [39]: 8 µg/mL (≈ 20.5 µM) | MIC [40]: < 4 µg/mL | MIC [41]: 4 µg/mL (≈ 10.2 µM) | MIC [42]: < 4 µg/mL | MIC [43]: < 0.0625 µg/mL | MIC [44]: 256 µg/mL (≈ 656 µM) | MIC [45]: < 0.125 µg/mL | MIC [46]: < 0.39 µg/mL | MIC [47]: 2 µg/mL (≈ 5.12 µM) | MIC [48]: < 0.0625 µg/mL | MIC [49]: < 4 µg/mL | MIC [50]: < 0.125 µg/mL | MIC [51]: 8 µg/mL (≈ 20.5 µM) | MIC [52]: 3.12 µg/mL (≈ 8 µM) | MIC [53]: < 0.195 µg/mL | MIC [54]: < 4 µg/mL | MIC [55]: < 4 µg/mL | MIC [56]: 1 µg/mL (≈ 2.56 µM) | MIC [57]: < 4 µg/mL | MIC [58]: 128 µg/mL (≈ 328 µM) | MIC [59]: 512 µg/mL (≈ 1310 µM) | MIC [60]: 1 µg/mL (≈ 2.56 µM) | selectivity ratio [61]: 2 to 4 | MIC [62]: < 0.0625 µg/mL | MIC [63]: 64 µg/mL (≈ 164 µM) | MIC [64]: 256 µg/mL (≈ 656 µM) | MIC [65]: 3.12 µg/mL (≈ 8 µM) | MIC [66]: 512 µg/mL (≈ 1310 µM) | MIC [67]: < 4 µg/mL

CN(C)CCCN1c2ccccc2Sc2ccc(Cl)cc21 [CHLORPROMAZINE]
MIC [1]: 0.25 µg/mL (≈ 0.784 µM) | MIC [2]: 8 µg/mL (≈ 25.1 µM) | MIC [3]: > 512 µg/mL | MIC [4]: 3.12 µg/mL (≈ 9.8 µM) | MIC [5]: 0.39 µg/mL (≈ 1.22 µM) | MIC [6]: 6.25 µg/mL (≈ 19.6 µM) | MIC [7]: < 0.031 µg/mL | MIC [8]: 1 µg/mL (≈ 3.14 µM) | MIC [9]: 64 µg/mL (≈ 201 µM) | MIC [10]: 1 µg/mL (≈ 3.14 µM) | MIC [11]: 64 µg/mL (≈ 201 µM) | MIC [12]: 1 µg/mL (≈ 3.14 µM) | MIC [13]: 3.12 µg/mL (≈ 9.8 µM) | MIC [14]: 64 µg/mL (≈ 201 µM) | MIC [15]: < 0.5 µg/mL | MIC [16]: 32 µg/mL (≈ 100 µM) | MIC [17]: 8 µg/mL (≈ 25.1 µM) | MIC [18]: 1 µg/mL (≈ 3.14 µM) | MIC [19]: < 0.195 µg/mL | MIC [20]: > 512 µg/mL | MIC [21]: < 0.5 µg/mL | MIC [22]: 1.56 µg/mL (≈ 4.89 µM) | MIC [23]: 1 µg/mL (≈ 3.14 µM) | MIC [24]: > 512 µg/mL | MIC [25]: 128 µg/mL (≈ 401 µM) | MIC [26]: 2 µg/mL (≈ 6.27 µM) | MIC [27]: 30 µg/mL (≈ 94.1 µM) | MIC [28]: 6.25 µg/mL (≈ 19.6 µM) | MIC [29]: > 512 µg/mL | MIC [31]: 0.0625 µg/mL (≈ 0.196 µM) | MIC [32]: 1 µg/mL (≈ 3.14 µM) | MIC [33]: 4 µg/mL (≈ 12.5 µM) | MIC [34]: 30 µg/mL (≈ 94.1 µM) | MIC [35]: < 1 µg/mL | MIC [36]: 4 µg/mL (≈ 12.5 µM) | MIC [38]: 12.5 µg/mL (≈ 39.2 µM) | MIC [39]: 16 µg/mL (≈ 50.2 µM) | MIC [40]: < 4 µg/mL | MIC [41]: 8 µg/mL (≈ 25.1 µM) | MIC [42]: 32 µg/mL (≈ 100 µM) | MIC [43]: < 0.125 µg/mL | MIC [44]: 60 µg/mL (≈ 188 µM) | MIC [45]: 4 µg/mL (≈ 12.5 µM) | MIC [46]: < 0.39 µg/mL | MIC [47]: 4 µg/mL (≈ 12.5 µM) | MIC [48]: 0.5 µg/mL (≈ 1.57 µM) | MIC [49]: 16 µg/mL (≈ 50.2 µM) | MIC [50]: 8 µg/mL (≈ 25.1 µM) | MIC [51]: 8 µg/mL (≈ 25.1 µM) | MIC [52]: 6.25 µg/mL (≈ 19.6 µM) | MIC [53]: 0.78 µg/mL (≈ 2.45 µM) | MIC [54]: < 4 µg/mL | MIC [55]: < 4 µg/mL | MIC [56]: 1 µg/mL (≈ 3.14 µM) | MIC [57]: < 4 µg/mL | MIC [58]: > 512 µg/mL | MIC [59]: > 512 µg/mL | MIC [60]: 2 µg/mL (≈ 6.27 µM) | MIC [62]: < 0.0625 µg/mL | MIC [63]: 128 µg/mL (≈ 401 µM) | MIC [64]: 30 µg/mL (≈ 94.1 µM) | MIC [65]: 12.5 µg/mL (≈ 39.2 µM) | MIC [66]: > 512 µg/mL | MIC [67]: 128 µg/mL (≈ 401 µM)
